Structures can show the parent of a compound that is named as a salt.

These results are taken from patent US20240398783A1, “Compounds and Pharmaceutical Compositions Comprising Inhibitors of Amyloid Peptide Interactions with Glycosaminoglycans, Methods of Treatment and Use Thereof” (Gismo Therapeutics, Inc., priority 2021, published 2024).

Chain of TDP-43 binding to purified human brain membranes (Q13148 whole entry): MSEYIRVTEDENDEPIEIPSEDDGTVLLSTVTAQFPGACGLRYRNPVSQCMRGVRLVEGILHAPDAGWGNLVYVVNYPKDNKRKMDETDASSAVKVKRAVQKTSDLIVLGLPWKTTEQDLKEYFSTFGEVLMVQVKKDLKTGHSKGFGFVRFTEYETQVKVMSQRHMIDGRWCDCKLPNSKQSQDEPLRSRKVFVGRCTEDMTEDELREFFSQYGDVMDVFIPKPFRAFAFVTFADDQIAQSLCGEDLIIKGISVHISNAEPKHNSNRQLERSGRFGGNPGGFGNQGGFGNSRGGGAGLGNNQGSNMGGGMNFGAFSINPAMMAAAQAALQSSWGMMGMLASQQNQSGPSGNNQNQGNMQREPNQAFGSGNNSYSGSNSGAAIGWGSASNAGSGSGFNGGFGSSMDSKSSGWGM

For the first assay, the target named is TDP-43 binding to purified human brain membranes (Homo sapiens, UniProt Q13148). Description: Inhibition of TDP-43 binding to purified human brain cell membranes (ELISA). Conditions: TDP43/Membrane Activity (IC-50), TDP-43, purified human brain membranes. How it is done:
Purified human brain cell membranes were prepared by differential centrifugation as follows. Five grams of frozen human brain postmortem tissue (obtained from University of Kentucky Alzheimer's Disease Center Tissue Bank) was homogenized in 50 ml HEPES-Buffered sucrose (0.32M sucrose, 4 mM HEPES pH7.4, protease inhibitors) with a motor driven glass-teflon homogenizer. After removing nuclear and cell debris by centrifugation of homogenates at 1,000×g for 10 min at 4 degree Celsius, post-nuclear supernatant was centrifuged at 100,000×g for 30 minutes to yield the crude membrane pellet. Crude membrane pellet was re-suspended in 0.32M sucrose, then centrifuged again at 100,000×g for 30 minutes to yield washed membrane pellet. Membrane pellet was resuspended in sterile PBS (pH7.4), quickly frozen, and kept in aliquots at −80 degrees Celsius. This preparation contains human brain cell membranes. Protein concentration was measured with BCA protein assay kit (Pierce Cat. No. 23227). Purified brain membranes were diluted to 0.01 mg/ml in PBS (pH 7.4) and then added to a 96 well polystyrene ELISA plate (NUNC Cat. No. 449824; 100 μl per well). Plates were incubated Over Night (ON) at 4 degrees Celsius. Following the incubation, the plate was washed consecutively, by immersion, with de-ionized water and PBS (pH 7.4). The ELISA plate was then blocked with nonfat milk (2%, 200 μl per well) for 2 hours at Room Temperature (RT). Following blocking, the plate was washed with de-ionized water then PBS (pH 7.4). GBAPs were dissolved and diluted in PBS (pH 6.5, supplemented with 0.1% BSA) at desired concentrations, added to the ELISA plates coated with brain membranes (100 μl per well) and incubated for 2 hours at RT with gentle shaking. Following incubation, the plate was washed with de-ionized water and three times with PBS (pH 6.5) plus Tween. Bound GBAP was detected by a monoclonal antibody specific for that GBAP, followed by incubation with secondary antibody conjugated to horseradish peroxidase (HRP). Antibody was diluted in PBS (pH6.5 supplemented with 1% BSA). Following each incubation with antibody, the plate was washed with de-ionized water and three times with PBS (pH6.5) wash buffer containing 0.1% Tween. The peroxidase substrate chromogen, TMB (Dako Cat. No. S1599) was added (100 μl per well) to the ELISA plate and incubated at room temperature. After 5 minutes ELISA Stop Solution (hydrochloric acid 1N, sulfuric acid 3N) was added (100 μl per well) to stop the peroxidase catalyzed colorimetric reaction. The Optical Density of the samples was measured at 450 nm using an ELISA plate reader (BioTek Synergy H1). Following color development, the % inhibition compared to control was determined. IC-50s were calculated using GraphPad Prism software.
The assay was performed as described in Example 49, with the following modifications. Following to coating the plates with purified human brain cell membranes, plates were washed as described. The compounds were dissolved in DMSO at 10 mM final concentration and further diluted prior to assay. DMSO concentration in the screening well was up to 2%. Individual compounds were co-incubated with TDP-43 on plates coated with brain membranes. TDP43 from R&D System (Cat. No. AP-190) was quickly frozen and kept in aliquots at −80 degrees Celsius. TDP-43 dissolved in PBS (pH 6.5, supplemented with BSA, 0.1%) was added to the ELISA plate (100 μl per well) and incubated for 2 hours at RT with gentle shaking. Following the incubation, the plate was washed with de-ionized water and three times with PBS (pH 6.5) plus Tween. Bound TDP-43 was detected by Anti-TDP43 Monoclonal Antibody (R&D System Cat. No. MAB7778), followed by secondary anti-IgG antibody conjugated to HRP (R&D System, Cat. No. HAF007). Following to color development with TMB, as described in Example 49, the Optical Density of the samples was measured at 450 nm using an ELISA plate reader. […]
In general terms: In an ELISA, binding on a coated surface is turned into a signal by an enzyme label.
In the case of `C/C(=N\Nc1ncnc2cc(Cl)ccc12)c1ccc(-n2cnc(C)c2C)nc1` [Compound 16, 7-chloro-4-(2-(1-(6-(4,5-dimethyl-1H-imidazol-1-yl)pyridin-3-yl)ethylidene)hydrazineyl)quinazoline phosphate], the IC50 was found to be 2.11 µM.
Still for that read-out and setting: as for `Cc1ncn(-c2ccc(/C=N\Nc3ncnc4cc(Cl)ccc34)cn2)c1C` [Compound 15, 7-chloro-4-(2-((6-(4,5-dimethyl-1H-imidazol-1-yl)pyridin-3-yl)methylene)hydrazineyl)quinazoline hydrochloride], the figure is 3.01 µM; as for `C/C(=N\Nc1ncnc2cc(F)ccc12)c1ccc(-n2cc[n+](C)c2)nc1` [Compound 26, (E)-1-(5-(1-(2-(7-fluoroquinazolin-4-yl)hydrazineylidene)ethyl)pyridin-2-yl)-3-methyl-1H-imidazol-3-ium phosphoric acid salt], 27.2 µM.
Consider `Clc1ccc2c(Nc3ccc(-n4cncn4)nc3)ncnc2c1` [Compound 34, N-(6-(1H-1,2,4-triazol-1-yl)pyridin-3-yl)-7-chloroquinazolin-4-amine phosphoric acid salt], for which the IC50 was 3.67 µM.
Consider `Cc1ncn(-c2ccc(Nc3ncnc4cc(Cl)ccc34)cn2)c1C` [Compound 25, 7-chloro-N-(6-(4,5-dimethyl-1H-imidazol-1-yl)pyridin-3-yl)quinazolin-4-amine], for which the IC50 came out at 11.5 µM.
Same read-out and setting: as for `Clc1ccc2c(N/N=C/c3ccc(-n4ccnc4)nc3)ccnc2c1` [Compound 14, (E)-4-(2-((6-(1H-imidazol-1-yl)pyridin-3-yl)methylene)hydrazineyl)-7-chloroquinoline hydrochloride], the figure is 4.01 µM; as for `CC(=NNc1ccnc2cc(Cl)ccc12)c1ccc(-n2ccnc2)cc1` [Compound 36, 4-(2-(1-(4-(1H-imidazol-1-yl)phenyl)ethylidene)hydrazineyl)-7-chloroquinoline phosphate], 48.6 µM; as for `Clc1ccc2c(Nc3ccc(-n4cncn4)nc3)ccnc2c1` [Compound 44, N-(6-(1H-1,2,4-triazol-1-yl)pyridin-3-yl)-7-chloroquinolin-4-amine], 26.2 µM.
Same read-out and setting: as for `C/C(=N\Nc1ncnc2cc(Cl)ccc12)c1ccc(-n2cc[n+](C)c2)nc1` [Compound 17, (E)-1-(5-(1-(2-(7-chloroquinazolin-4-yl)hydrazineylidene)ethyl)pyridin-2-yl)-3-methyl-1H-imidazol-3-ium iodide phosphoric acid salt], the figure is 22.5 µM; as for `Clc1ccc2c(N/N=C/c3ccc(-n4cccn4)cc3)ccnc2c1` [Compound 3, (E)-4-((E)-(4-(1H-pyrazol-1-yl)benzylidene)hydrazono)-7-chloro-1,4-dihydroquinoline], 6.57 µM.
Turning to `Clc1ccc2c(N/N=C/c3ccc(-n4ccnc4)cc3)ccnc2c1` [Compound 38, 4-(2-(4-(1H-imidazol-1-yl)benzylidene)hydrazineyl)-7-chloroquinoline dihydrochloride], the IC50 turned out to be 6.17 µM.
Consider `Fc1cc(/C=N/Nc2ccnc3cc(Cl)ccc23)ccc1-n1ccnc1` [Compound 35, (E)-7-chloro-4-(2-(3-fluoro-4-(1H-imidazol-1-yl)benzylidene)hydrazineyl)quinoline hydrochloride], for which the IC50 was 13.1 µM.
On the same count and under the same terms, as for `C(=N\Nc1ccc2c3c(cccc13)CC2)/c1ccc(-n2ccnc2)cc1` [Compound 8, (E)-1-(4-((2-(1,2-dihydroacenaphthylen-5-yl)hydrazineylidene)methyl)phenyl)-1H-imidazole], the figure is 25.2 µM; as for `CC(=NNc1ccnc2cc(Cl)ccc12)c1ccc(-n2cnc(C)c2C)nc1` [Compound 22, 7-chloro-4-(2-(1-(6-(4,5-dimethyl-1H-imidazol-1-yl)pyridin-3-yl)ethylidene)hydrazineyl)quinoline], 12.2 µM.
Consider `Fc1ccc2c(N/N=C/c3ccc(-n4ccnc4)cc3)ccnc2c1` [Compound 5, (E)-4-(2-(4-(1H-imidazol-1-yl)benzylidene)hydrazinyl)-7-fluoroquinoline], for which the IC50 turned out to be 14.1 µM.
Turning to `Cc1ncn(-c2ncc(Nc3ncnc4cc(Cl)ccc34)cc2O)c1C` [Compound 40, 5-((7-chloroquinazolin-4-yl)amino)-2-(4,5-dimethyl-1H-imidazol-1-yl)pyridin-3-ol phosphoric acid salt], the IC50 was found to be 5.28 µM.

Staying with this assay, now noted: TDP-43, purified human brain membranes; read-out: TDP43/Membrane Activity (IC-50).
For `C/C(=N\Nc1ncnc2cc(F)ccc12)c1ccc(-n2cnc(C)c2C)nc1` [Compound 21, (E)-4-(2-(1-(6-(4,5-dimethyl-1H-imidazol-1-yl)pyridin-3-yl)ethylidene)hydrazineyl)-7-fluoroquinazoline], the IC50 came to 7.12 µM.
Same read-out and setting: as for `C/C(=N\Nc1ncnc2cc(Cl)ccc12)c1ccc(-n2cc(C)nc2C)nc1` [Compound 18, (E)-7-chloro-4-(2-(1-(6-(2,4-dimethyl-1H-imidazol-1-yl)pyridin-3-yl)ethylidene)hydrazineyl)quinazoline phosphoric acid salt], the figure is 9.28 µM; as for `CC(=NNc1ncnc2cc(Cl)ccc12)c1ccnc(-n2cnc(C)c2C)c1` [Compound 28, 7-chloro-4-(2-(1-(2-(4,5-dimethyl-1H-imidazol-1-yl)pyridin-4-yl)ethylidene)hydrazineyl)quinazoline], 8.93 µM; as for `C/C(=N\Nc1nncc2cc(Cl)ccc12)c1ccc(-n2cc(C)nc2C)nc1` [Compound 24, (E)-6-chloro-1-(2-(1-(6-(2,4-dimethyl-1H-imidazol-1-yl)pyridin-3-yl)ethylidene)hydrazineyl)phthalazine], 4 µM.
Still for that read-out and setting: as for `C/C(=N\Nc1ncnc2cc(Cl)ccc12)c1ccc(-n2cc(C)nc2C)nc1` [Compound 27, (E)-7-chloro-4-(2-(1-(6-(2,4-dimethyl-1H-imidazol-1-yl)pyridin-3-yl)ethylidene)hydrazineyl)quinazoline hydrochloride], the figure is 2.98 µM.
As for `Clc1ccc2c(Nc3ccc(-n4ccnc4)nc3)ncnc2c1` [Compound 41, N-(6-(1H-imidazol-1-yl)pyridin-3-yl)-7-chloroquinazolin-4-amine], the IC50 worked out at 8.32 µM.
As to `Cc1cc(-n2ccnc2)ccc1/C=N/Nc1ccnc2cc(Cl)ccc12` [Compound 1, (E)-4-((E)-(4-(1H-imidazol-1-yl)-2-methylbenzylidene)hydrazono)-7-chloro-1,4-dihydroquinoline], the IC50 came to 3.42 µM.
